Experimental data published in PubChem BioAssay AID1259407 (Chemical Carcinogenesis Research Information System (CCRIS), 2018).
Calls of active or inactive are those of the source. How the calls were made is not given here.

Test system: CCRIS mutagenicity, Ames/micronucleus/aberration tests
Test: CCRIS mutagenicity studies
[1] = Test System: AMES SALMONELLA TYPHIMURIUM, Strain/Indicator: TA97, Metabolic Activation: NONE, Method: PREINCUBATION
[2] = Test System: AMES SALMONELLA TYPHIMURIUM, Strain/Indicator: TA98, Metabolic Activation: HAMSTER, LIVER, S-9, AROCLOR 1254 (10%), Method: PREINCUBATION
[3] = Test System: AMES SALMONELLA TYPHIMURIUM, Strain/Indicator: TA98, Metabolic Activation: NONE, Method: PREINCUBATION
[4] = Test System: AMES SALMONELLA TYPHIMURIUM, Strain/Indicator: TA98, Metabolic Activation: RAT, LIVER, S-9, AROCLOR 1254 (10%), Method: PREINCUBATION
[5] = Test System: AMES SALMONELLA TYPHIMURIUM, Strain/Indicator: TA100, Metabolic Activation: HAMSTER, LIVER, S-9, AROCLOR 1254 (10%), Method: PREINCUBATION
[6] = Test System: AMES SALMONELLA TYPHIMURIUM, Strain/Indicator: TA100, Metabolic Activation: NONE, Method: PREINCUBATION
[7] = Test System: AMES SALMONELLA TYPHIMURIUM, Strain/Indicator: TA100, Metabolic Activation: RAT, LIVER, S-9, AROCLOR 1254 (10%), Method: PREINCUBATION
[8] = Test System: AMES SALMONELLA TYPHIMURIUM, Strain/Indicator: TA1535, Metabolic Activation: HAMSTER, LIVER, S-9, AROCLOR 1254 (10%), Method: PREINCUBATION
[9] = Test System: AMES SALMONELLA TYPHIMURIUM, Strain/Indicator: TA1535, Metabolic Activation: NONE, Method: PREINCUBATION
[10] = Test System: AMES SALMONELLA TYPHIMURIUM, Strain/Indicator: TA1535, Metabolic Activation: RAT, LIVER, S-9, AROCLOR 1254 (10%), Method: PREINCUBATION

Measured: mutagenic call

O=S(=O)(O)c1ccc(N=Nc2c(O)ccc3cc(S(=O)(=O)O)ccc23)cc1
inactive: End Point: IN VITRO CHROMOSOMAL ABERRATIONS, Test System: CHO CELLS, Metabolic Activation: NONE inactive; negative | End Point: IN VITRO CHROMOSOMAL ABERRATIONS, Test System: CHO CELLS, Metabolic Activation: RAT, LIVER, S-9, AROCLOR 1254 inactive; negative | Test System: AMES SALMONELLA TYPHIMURIUM, Strain/Indicator: TA97, Metabolic Activation: HAMSTER, LIVER, S-9, AROCLOR 1254 (10%), Method: PREINCUBATION inactive; negative | Test System: AMES SALMONELLA TYPHIMURIUM, Strain/Indicator: TA97, Metabolic Activation: HAMSTER, LIVER, S-9, AROCLOR 1254 (30%), Method: PREINCUBATION inactive; negative | [1] inactive; negative | Test System: AMES SALMONELLA TYPHIMURIUM, Strain/Indicator: TA97, Metabolic Activation: RAT, LIVER, S-9, AROCLOR 1254 (10%), Method: PREINCUBATION inactive; negative | Test System: AMES SALMONELLA TYPHIMURIUM, Strain/Indicator: TA97, Metabolic Activation: RAT, LIVER, S-9, AROCLOR 1254 (30%), Method: PREINCUBATION inactive; negative | [2] inactive; negative | Test System: AMES SALMONELLA TYPHIMURIUM, Strain/Indicator: TA98, Metabolic Activation: HAMSTER, LIVER, S-9, AROCLOR 1254 (30%), Method: PREINCUBATION inactive; negative | [3] inactive; negative | Test System: AMES SALMONELLA TYPHIMURIUM, Strain/Indicator: TA98, Metabolic Activation: NONE, Method: STANDARD PLATE inactive; negative | Test System: AMES SALMONELLA TYPHIMURIUM, Strain/Indicator: TA98, Metabolic Activation: RAT LIVER S-9, AROCLOR 1254, Method: STANDARD PLATE inactive; negative | [4] inactive; negative | Test System: AMES SALMONELLA TYPHIMURIUM, Strain/Indicator: TA98, Metabolic Activation: RAT, LIVER, S-9, AROCLOR 1254 (30%), Method: PREINCUBATION inactive; negative | Test System: AMES SALMONELLA TYPHIMURIUM, Strain/Indicator: TA98, Metabolic Activation: RAT, LIVER, S-9, PHENOBARBITAL, Method: PREINCUBATION inactive; negative | [5] inactive; negative | Test System: AMES SALMONELLA TYPHIMURIUM, Strain/Indicator: TA100, Metabolic Activation: HAMSTER, LIVER, S-9, AROCLOR 1254 (30%), Method: PREINCUBATION inactive; negative | [6] inactive; negative | Test System: AMES SALMONELLA TYPHIMURIUM, Strain/Indicator: TA100, Metabolic Activation: NONE, Method: STANDARD PLATE inactive; negative | Test System: AMES SALMONELLA TYPHIMURIUM, Strain/Indicator: TA100, Metabolic Activation: RAT LIVER S-9, AROCLOR 1254, Method: STANDARD PLATE inactive; negative | [7] inactive; negative | Test System: AMES SALMONELLA TYPHIMURIUM, Strain/Indicator: TA100, Metabolic Activation: RAT, LIVER, S-9, AROCLOR 1254 (30%), Method: PREINCUBATION inactive; negative | Test System: AMES SALMONELLA TYPHIMURIUM, Strain/Indicator: TA100, Metabolic Activation: RAT, LIVER, S-9, PHENOBARBITAL, Method: PREINCUBATION inactive; negative | [8] inactive; negative | Test System: AMES SALMONELLA TYPHIMURIUM, Strain/Indicator: TA1535, Metabolic Activation: HAMSTER, LIVER, S-9, AROCLOR 1254 (30%), Method: PREINCUBATION inactive; negative | [9] inactive; negative | [10] inactive; negative | Test System: AMES SALMONELLA TYPHIMURIUM, Strain/Indicator: TA1535, Metabolic Activation: RAT, LIVER, S-9, AROCLOR 1254 (30%), Method: PREINCUBATION inactive; negative

O=C(O)CS
inactive: Test System: AMES SALMONELLA TYPHIMURIUM, Strain/Indicator: TA97, Metabolic Activation: HAMSTER, LIVER, S-9, AROCLOR 1254 (10 OR 30%), Method: PREINCUBATION inactive; negative | [1] inactive; negative | Test System: AMES SALMONELLA TYPHIMURIUM, Strain/Indicator: TA97, Metabolic Activation: RAT, LIVER, S-9, AROCLOR 1254 (10 OR 30%), Method: PREINCUBATION inactive; negative | [2] inactive; negative | Test System: AMES SALMONELLA TYPHIMURIUM, Strain/Indicator: TA98, Metabolic Activation: HAMSTER, LIVER, S-9, AROCLOR 1254 (10 OR 30%), Method: PREINCUBATION inactive; negative | [3] inactive; negative | [4] inactive; negative | Test System: AMES SALMONELLA TYPHIMURIUM, Strain/Indicator: TA98, Metabolic Activation: RAT, LIVER, S-9, AROCLOR 1254 (10 OR 30%), Method: PREINCUBATION inactive; negative | [5] inactive; negative | Test System: AMES SALMONELLA TYPHIMURIUM, Strain/Indicator: TA100, Metabolic Activation: HAMSTER, LIVER, S-9, AROCLOR 1254 (10 OR 30%), Method: PREINCUBATION inactive; negative | [6] inactive; negative | [7] inactive; negative | Test System: AMES SALMONELLA TYPHIMURIUM, Strain/Indicator: TA100, Metabolic Activation: RAT, LIVER, S-9, AROCLOR 1254 (10 OR 30%), Method: PREINCUBATION inactive; negative | [8] inactive; negative | Test System: AMES SALMONELLA TYPHIMURIUM, Strain/Indicator: TA1535, Metabolic Activation: HAMSTER, LIVER, S-9, AROCLOR 1254 (10 OR 30%), Method: PREINCUBATION inactive; negative | [9] inactive; negative | [10] inactive; negative | Test System: AMES SALMONELLA TYPHIMURIUM, Strain/Indicator: TA1535, Metabolic Activation: RAT, LIVER, S-9, AROCLOR 1254 (10 OR 30%), Method: PREINCUBATION inactive; negative | Test System: AMES SALMONELLA TYPHIMURIUM, Strain/Indicator: TA1537, Metabolic Activation: HAMSTER, LIVER, S-9, AROCLOR 1254 (10%), Method: PREINCUBATION inactive; negative | Test System: AMES SALMONELLA TYPHIMURIUM, Strain/Indicator: TA1537, Metabolic Activation: NONE, Method: PREINCUBATION inactive; negative | Test System: AMES SALMONELLA TYPHIMURIUM, Strain/Indicator: TA1537, Metabolic Activation: RAT, LIVER, S-9, AROCLOR 1254 (10%), Method: PREINCUBATION inactive; negative
